From US20240123079A1 (Seagen Inc., priority 2021, published 2024)
pEC50: −log10 of the molar value. Read-outs that look alike come from different tables or passages of the source.

Tested on: THP1-Dual™ reporter cells
Assay: THP1-Dual cell reporter assay (IRF-Lucia luciferase reporter)
Format: cell-based, human
Description: THP1-Dual™ Cell Reporter Assay
Potency of compounds and ADCs was evaluated using the THP1-Dual™ cells (InvivoGen PN: thpd-nfis [also referred to as THP1 dual reporter cells]), which contain an IRF-Lucia luciferase reporter. Cells were cultured in RPMI-1640 (Gibco) with 10% heat-inactivated fetal bovine serum, Pen-Strep (100 U/mL-100 μg/mL, Gibco), HEPES (10 mM, Gibco)), sodium pyruvate (1 mM, Gibco), MEM non-essential amino acids (1×, Gibco), GlutaMAX (1×, Gibco), and beta-mercaptoethanol (55 μM, Gibco). Cells were plated in a 96-well flat bottom tissue culture-treated clear polystyrene plate (Corning Costar #3596) at ˜100,000 cells per well in 200 μL with the indicated concentration of the compound or ADC. The supernatant was harvested at 24 hours (compounds) or 48 hours (ADC) post plating for the reporter assay, or as indicated. To measure Lucia reporter signal, 10 μL of the supernatant was combined with 40 μL of QUANTI-Luc™ Luminescence assay reagent (Invivogen PN: rep-qlc1) in a 96-well clear flat bottom tissue culture-treated black polystyrene plate (Corning Costar #3603) and read on a Perkin Elmer Envision plate reader.
STING agonist compounds were assessed for their ability to activate THP1-Dual™ reporter cells, a human monocytic cell line in which type I interferon (IRF) signaling can be monitored via a secreted luciferase reporter protein (Lucia). THP1-Dual™ cells were treated with increasing concentrations of the agonists for 24h, then supernatants were harvested and the Lucia reporter signal was quantified using QUANTI-Luc™ Luminescence assay reagent.

[1] = Homo sapiens, THP1-Dual; free compounds, 24 h, Lucia reporter signal; read-out: EC50
[2] = ADCs: drug linker conjugated to a targeted mAb, 48 h
[3] = free compounds, 24 h, Lucia reporter signal; read-out: EC50

Row | pEC50 [1] | Compound | also measured
1 | 7.92 | CCn1nc(C)cc1C(=O)Nc1nc2cc(S(N)(=O)=O)ccc2n1C/C=C/Cn1c(NC(=O)c2cc(C)nn2CC)nc2cc(C(N)=O)cc(OCCCN(C)C(=O)OC(C)(C)C)c21 [Compound 25f] | –
2 | 5.80 | CCn1nc(C)cc1C(=O)Nc1nc2cc(S(N)(=O)=O)ccc2n1C/C=C/Cn1c(NC(=O)c2cc(C)nn2CC)nc2cc(C(N)=O)cc(OCCCNC)c21 [Compound 25g] | –
3 | 7.16 | CCn1nc(C)cc1C(=O)Nc1nc2cc(C(N)=O)cc(OC)c2n1C/C=C/Cn1c(NC(=O)c2cc(C)nn2CC)nc2cc(C(N)=O)cc(OCCC3CNC3)c21 [Compound 26f] | –
4 | 7.42 | CCn1nc(C)cc1C(=O)Nc1nc2cc(C(N)=O)cc(OC)c2n1C/C=C/Cn1c(NC(=O)c2cc(C)nn2CC)nc2cc(C(N)=O)cc(OCCCOC3CNC3)c21 [Compound 27f] | –

Continued, molecule first:

Row | Compound | pEC50 [1] | also measured
5 | CCn1nc(C)cc1C(=O)Nc1nc2cc(C(N)=O)cc(OC)c2n1C/C=C/Cn1c(NC(=O)c2cc(C)nn2CC)nc2cc(C(N)=O)cc(OCCCN(C)C(=O)CCN3C(=O)C=CC3=O)c21 [Compound 12, (E)-1-(4-(5-carbamoyl-2-(1-ethyl-3-methyl-1H-pyrazole-5-carboxamido)-7-methoxy-1H-benzo[d]imidazol-1-yl)but-2-en-1-yl)-7-(3-(3-(2,5-dioxo-2,5-dihydro-1H-pyrrol-1-yl)-N-methylpropanamido)propoxy)-2-(1-ethyl-3-methyl-1H-pyrazole-5-carboxamido)-1H-benzo[d]imidazole-5-carboxamide] | – | pEC50 (Homo sapiens, THP1-Dual, 24 h, free compounds, 24 h, Lucia reporter signal; read-out: EC50): 7.43
6 | CCn1nc(C)cc1C(=O)Nc1nc2cc(C(N)=O)cc(OC)c2n1C/C=C/Cn1c(NC(=O)c2cc(C)nn2CC)nc2cc(C(N)=O)cc(OCCCN(C)C(=O)OCc3ccc(O[C@@H]4O[C@H](C(=O)O)[C@@H](O)[C@H](O)[C@H]4O)cc3NC(=O)CCNC(=O)CCN3C(=O)C=CC3=O)c21 [Compound 13] | – | potency of ADC relative to other ADC (conjugated to a targeted mAb, 48 h): more potent
7 | CCn1nc(C)cc1C(=O)Nc1nc2cc(C(N)=O)cc(O)c2n1C/C=C/Cn1c(NC(=O)c2cc(C)nn2CC)nc2cc(C(N)=O)cc(OCCCNC)c21 [Compound 15b] | 8.24 | potency relative to other free compound (free drug): more potent than 12a
8 | CCn1nc(C)cc1C(=O)Nc1nc2cc(C(N)=O)cc(OC)c2n1C/C=C/Cn1c(NC(=O)c2cc(C)nn2CC)nc2cc(C(N)=O)cc(OCCCN(C)C(=O)[C@H](CC(=O)O)NC(=O)CCN3C(=O)C=CC3=O)c21 [Compound 17, (S,E)-4-((3-((5-carbamoyl-1-(4-(5-carbamoyl-2-(1-ethyl-3-methyl-1H-pyrazole-5-carboxamido)-7-methoxy-1H-benzo[d]imidazol-1-yl)but-2-en-1-yl)-2-(1-ethyl-3-methyl1H-pyrazole-5-carboxamido)-1H-benzo[d]imidazol-7-yl)oxy)propyl)(methyl)amino)-3-(3-(2,5-dioxo-2,5-dihydro-1H-pyrrol-1-yl)propanamido)-4-oxobutanoic acid] | 7.18 | EC50 [2]: 0.0022 µg/mL
9 | CCn1nc(C)cc1C(=O)Nc1nc2cc(C(N)=O)cc(OC)c2n1C/C=C/Cn1c(NC(=O)c2cc(C)nn2CC)nc2cc(C(N)=O)cc(OCCCN(C)C(=O)[C@H](CO)NC(=O)CCN3C(=O)C=CC3=O)c21 [Compound 24, (S,E)-1-(4-(5-carbamoyl-2-(1-ethyl-3-methyl-1H-pyrazole-5-carboxamido)-7-methoxy-1H-benzo[d]imidazol-1-yl)but-2-en-1-yl)-7-(3-(2-(3-(2,5-dioxo-2,5-dihydro-1H-pyrrol-1-yl)propanamido)-3-hydroxy-N-methylpropanamido)propoxy)-2-(1-ethyl-3-methyl-1H-pyrazole-5-carboxamido)-1H-benzo[d]imidazole-5-carboxamide] | 7.08 | EC50 [2]: 0.0021 µg/mL
10 | CCn1nc(C)cc1C(=O)Nc1nc2cc(S(N)(=O)=O)ccc2n1C/C=C/Cn1c(NC(=O)c2cc(C)nn2CC)nc2cc(C(N)=O)cc(OCCCN(C)C(=O)CCN3C(=O)C=CC3=O)c21 [Compound 25, (E)-7-(3-(3-(2,5-dioxo-2,5-dihydro-1H-pyrrol-1-yl)-N-methylpropanamido)propoxy)-2-(1-ethyl-3-methyl-1H-pyrazole-5-carboxamido)-1-(4-(2-(1-ethyl-3-methyl-1H-pyrazole-5-carboxamido)-5-sulfamoyl-1H-benzo[d]imidazol-1-yl)but-2-en-1-yl)-1H-benzo[d]imidazole-5-carboxamide] | – | EC50 [2]: 0.307 µg/mL
11 | CCn1nc(C)cc1C(=O)Nc1nc2cc(C(N)=O)cc(OC)c2n1C/C=C/Cn1c(NC(=O)c2cc(C)nn2CC)nc2cc(C(N)=O)cc(OCCC3CN(C(=O)CCN4C(=O)C=CC4=O)C3)c21 [Compound 26, (E)-1-(4-(5-carbamoyl-2-(1-ethyl-3-methyl-1H-pyrazole-5-carboxamido)-7-methoxy-1H-benzo[d]imidazol-1-yl)but-2-en-1-yl)-7-(2-(1-(3-(2,5-dioxo-2,5-dihydro-1H-pyrrol-1-yl)propanoyl)azetidin-3-yl)ethoxy)-2-(1-ethyl-3-methyl-1H-pyrazole-5-carboxamido)-1H-benzo[d]imidazole-5-carboxamide] | – | EC50 [2]: 0.0144 µg/mL
12 | CCn1nc(C)cc1C(=O)Nc1nc2cc(C(N)=O)cc(OC)c2n1C/C=C/Cn1c(NC(=O)c2cc(C)nn2CC)nc2cc(C(N)=O)cc(OCCC3CN(C(=O)OC(C)(C)C)C3)c21 [Compound 26e] | – | pEC50 [3]: 8.30
13 | CCn1nc(C)cc1C(=O)Nc1nc2cc(C(N)=O)cc(OC)c2n1C/C=C/Cn1c(NC(=O)c2cc(C)nn2CC)nc2cc(C(N)=O)cc(OCCCOC3CN(C(=O)CCN4C(=O)C=CC4=O)C3)c21 [Compound 27, (E)-1-(4-(5-carbamoyl-2-(1-ethyl-3-methyl-1H-pyrazole-5-carboxamido)-7-methoxy-1H-benzo[d]imidazol-1-yl)but-2-en-1-yl)-7-(3-((1-(3-(2,5-dioxo-2,5-dihydro-1H-pyrrol-1-yl)propanoyl)azetidin-3-yl)oxy)propoxy)-2-(1-ethyl-3-methyl-1H-pyrazole-5-carboxamido)-1H-benzo[d]imidazole-5-carboxamide] | – | EC50 [2]: 0.0104 µg/mL
14 | CCn1nc(C)cc1C(=O)Nc1nc2cc(C(N)=O)cc(OC)c2n1C/C=C/Cn1c(NC(=O)c2cc(C)nn2CC)nc2cc(C(N)=O)cc(OCCCOC3CN(C(=O)OC(C)(C)C)C3)c21 [Compound 27e] | – | pEC50 [3]: 8.89
15 | CCn1nc(C)cc1C(=O)Nc1nc2cc(S(N)(=O)=O)ccc2n1C/C=C/Cn1c(NC(=O)c2cc(C)nn2CC)nc2cc(C(N)=O)cc(OCCCN(C)C(=O)CCN3C(=O)CC(SC[C@H](N)C(=O)O)C3=O)c21 (stereo partly drawn) [Compound 28, S-(1-(3-((3-((5-carbamoyl-2-(1-ethyl-3-methyl-1H-pyrazole-5-carboxamido)-1-((E)-4-(2-(1-ethyl-3-methyl-1H-pyrazole-5-carboxamido)-5-sulfamoyl-1H-benzo[d]imidazol-1-yl)but-2-en-1-yl)-1H-benzo[d]imidazol-7-yl)oxy)propyl)(methyl)amino)-3-oxopropyl)-2,5-dioxopyrrolidin-3-yl)-L-cysteine] | 6.02 | –
16 | CCn1nc(C)cc1C(=O)Nc1nc2cc(C(N)=O)cc(OC)c2n1C/C=C/Cn1c(NC(=O)c2cc(C)nn2CC)nc2cc(C(N)=O)cc(OCCC3CN(C(=O)CCN4C(=O)CC(SC[C@H](N)C(=O)O)C4=O)C3)c21 (stereo partly drawn) [Compound 29, S-(1-(3-(3-(2-((5-carbamoyl-1-((E)-4-(5-carbamoyl-2-(1-ethyl-3-methyl-1H-pyrazole-5-carboxamido)-7-methoxy-1H-benzo[d]imidazol-1-yl)but-2-en-1-yl)-2-(1-ethyl-3-methyl-1H-pyrazole-5-carboxamido)-1H-benzo[d]imidazol-7-yl)oxy)ethyl)azetidin-1-yl)-3-oxopropyl)-2,5-dioxopyrrolidin-3-yl)-L-cysteine] | 7.28 | –
17 | CCn1nc(C)cc1C(=O)Nc1nc2cc(C(N)=O)cc(OC)c2n1C/C=C/Cn1c(NC(=O)c2cc(C)nn2CC)nc2cc(C(N)=O)cc(OCCCOC3CN(C(=O)CCN4C(=O)CC(SC[C@H](N)C(=O)O)C4=O)C3)c21 (stereo partly drawn) [Compound 30, S-(1-(3-(3-(3-((5-carbamoyl-1-((E)-4-(s-carbamoyl-2-(1-ethyl-3-methyl-1H-pyrazole-5-carboxamido)-7-methoxy-1H-benzo[d]imidazol-1-yl)but-2-en-1-yl)-2-(1-ethyl-3-methyl-1H-pyrazole-5-carboxamido)-1H-benzo[d]imidazol-7-yl)oxy)propoxy)azetidin-1-yl)-3-oxopropyl)-2,5-dioxopyrrolidin-3-yl)-L-cysteine] | 7.06 | –
18 | CCn1ncc(C)c1C(=O)Nc1nc2cc(C(N)=O)cc(O)c2n1C/C=C/Cn1c(NC(=O)c2c(C)cnn2CC)nc2cc(C(N)=O)cc(OC)c21 [Compound 31] | 6.76 | –
19 | CCn1nc(C(=O)Nc2nc3cc(C(N)=O)cc(O)c3n2C/C=C/Cn2c(NC(=O)c3cc(C)n(CC)n3)nc3cc(C(N)=O)cc(OC)c32)cc1C [Compound 32] | 7.35 | –
20 | COc1cc(C(N)=O)cc2nc(NC(=O)c3ccco3)n(C/C=C/Cn3c(NC(=O)c4ccco4)nc4cc(C(N)=O)cc(O)c43)c12 [Compound 33] | < 5.00 | –
21 | COc1cc(C(N)=O)cc2nc(NC(=O)c3cccs3)n(C/C=C/Cn3c(NC(=O)c4cccs4)nc4cc(C(N)=O)cc(O)c43)c12 [Compound 35] | < 5.00 | –
22 | CCn1nccc1C(=O)Nc1nc2cc(C(N)=O)cc(O)c2n1C/C=C/Cn1c(NC(=O)c2ccnn2CC)nc2cc(C(N)=O)cc(OC)c21 [Compound 37] | < 5.00 | –
